A short description of the series: Visual wetting of cenobamate API on wetting agent solution. Type of series: physicochemical. Conditions: in the presence of poloxamer 188; time for cenobamate to fall below the surface. Here is the method:
Poloxamer 188 was evaluated at different concentrations for sedimentation volume, dispensability and wettability of cenobamate containing dispersion in a neat citrate or phosphate buffer at pH 3 to 7. Approximately one hundred milligrams (100 mg) of cenobamate was dispersed in 10 mL of the poloxamer liquid at the concentration of 0.10, 0.50, 1.00, and 1.50 mg/mL in phosphate buffer pH 4.2 and the dispersions were evaluated for sedimentation volume, re-dispersibility, and wettability. Additionally, separate samples containing poloxamer 188 at the concertation of 0.1 mg/ml were also prepared in citrate buffer at different levels of pH (pH 3.5, 4.2 and 5.2), and evaluated in the same manner.
The volume of the sedimentation layer is an indicator to the amount of spacing between the particles in the sediment layer. Physical observations indicated these dispersions settled rapidly but formed a loosely packed layer which was very easily re-dispersed after inversion and/or shaking (FIGS. 1 and 2).
The following intended effects that were observed are immediate wetting of most of the material after adding cenobamate to the poloxamer solution, rapid and loose initial sedimentation within first 30 minutes to 1 hour as measured by ratio of sediment volume to total volume, no caking and efficient re-dispersion, rapidly dispersing material after shaking the settled sample for 10 seconds.

`NC(=O)O[C@@H](Cn1ncnn1)c1ccccc1Cl` [cenobamate, carbamic acid (R)-1-(2-chlorophenyl)-2-tetrazol-2-yl-ethyl ester]: the Wetting of cenobamate entry is listed as “good wetting”.

Source of the values: patent US12226399B2, “Oral aqueous suspension formulation comprising carbamate compound” (SK BIOPHARMACEUTICALS CO., LTD., priority 2021, dated 2025).
